The values that follow come from article PMC9181902 (Journal of the American Chemical Society, 2022).

Entries after “also recorded” stand apart in the source; their conditions may differ.

The target of experiment [1] is T1, hOAT (Homo sapiens, UniProt P04181).
T1 sequence (P04181 26-439): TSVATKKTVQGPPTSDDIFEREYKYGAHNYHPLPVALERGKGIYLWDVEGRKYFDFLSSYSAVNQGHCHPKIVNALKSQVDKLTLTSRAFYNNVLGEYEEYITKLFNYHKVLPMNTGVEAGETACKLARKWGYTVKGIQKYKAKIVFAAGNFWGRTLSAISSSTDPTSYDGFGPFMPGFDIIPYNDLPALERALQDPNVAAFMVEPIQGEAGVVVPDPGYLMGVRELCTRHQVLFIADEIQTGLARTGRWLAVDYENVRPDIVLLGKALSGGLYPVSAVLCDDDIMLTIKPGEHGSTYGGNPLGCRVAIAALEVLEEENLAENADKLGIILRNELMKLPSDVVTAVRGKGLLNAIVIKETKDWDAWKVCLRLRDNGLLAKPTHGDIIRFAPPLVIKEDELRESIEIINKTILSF
The following applies: cited from earlier work.

For experiment [2] the following is noted: cited from earlier work.
Experiment [3] has as its system GABA-AT. Nature of the experiment: Inhibition of GABA-AT. Conditions: even at high concentrations. Format: biochemical, human.
The test system of the next experiment is Asp-AT. Nature of the experiment: Inhibition of Asp-AT. Format: biochemical, human. The following applies: even at high concentrations.
The subject of another experiment is Ala-AT. Nature of the experiment: Inhibition of Ala-AT. It counts as biochemical, human. The following applies: even at high concentrations.
Experiment [4] deals with T1, hOAT. Nature of the experiment: Dialysis of inactivated hOAT, return of enzyme activity. It counts as biochemical.
In experiment [5] the target is T1, hOAT. Nature of the experiment: Partition ratio. Format: biochemical.
In experiment [6] the target is T1, hOAT. Nature of the experiment: Stopped-flow transient state measurements of hOAT. It counts as biochemical.
Experiment [7] relates to GABA-AT. Conditions: cited from earlier work.

Turning to `N[C@H]1C[C@@H](C(=O)O)CC1=C(C(F)(F)F)C(F)(F)F` [6c, (1S,3S)-3-amino-4-(hexafluoropropan-2-ylidenyl)cyclopentane-1-carboxylic Acid], at hOAT [1], the Ki is 65 ± 10 µM. Besides, the “in vivo antitumor efficacy” value in [2] is on record as “potent in vivo antitumor efficacy”.

As for `N[C@H]1C=C(C(=O)O)C[C@H]1C(F)F` [10b, (3S,4R)-3-Amino-4-(difluoromethyl)cyclopent-1-ene-1-carboxylic Acid], the “inhibitory activity against GABA-AT” value in the experiment with GABA-AT [3] is “weak reversible inhibitor; also recorded: weak reversible inhibitory activity”. In addition, the “inhibitory activity against Asp-AT” value in the experiment on Asp-AT is “weak reversible inhibitory activity”. For the same compound, the “inhibitory activity against Ala-AT” value in the experiment on Ala-AT was “weak reversible inhibitory activity”. Further, at hOAT [4] (91 h of dialysis, varying equivalents), the “enzyme activity recovered after dialysis” value is given as “no enzyme activity was recovered”. Moreover, the “fraction undergoing ketimine hydrolysis to product 37 and PMP” value at hOAT [5] is reported as ~ 70%. Moreover, on hOAT [5] (according to the partition ratio (1/3.38)), the “fraction of the reaction forming tight-binding adduct 34” value is ~ 30%. At hOAT [6] (500 μM of 10b), the “first successive rate constant from fit of CCD data sets (k2’)” value worked out at 0.22 s⁻¹, the “second successive rate constant from fit of CCD data sets (k3’)” value was 0.21 s⁻¹ and the “third successive rate constant from fit of CCD data sets (k4)” value amounted to 0.03 s⁻¹. Also, the “rate constant for formation of P1 from M2 (k4)” value on hOAT [6] (410 nm, second phase, average) is listed as ~ 0.02 s^−1.

Take `N[C@H]1C[C@@H](C(=O)O)CC1=C(F)F` [compound 1, (1S,3S)-3-amino-4-(difluoromethylene)cyclopentane-1-carboxylic acid]: the “enzyme activity recovered after dialysis” value on hOAT [4] (48 h of dialysis) is “no enzyme activity was recovered”.

Turning to `N[C@H]1C=C(C(=O)O)CC1=C(F)F` [compound 7, (S)-3-amino-4-(difluoromethylenyl)cyclopent-1-ene-1-carboxylic acid], the “enzyme activity recovered after dialysis” value at hOAT [4] (48 h of dialysis) was “no enzyme activity was recovered”. Further, the “type of inhibition of GABA-AT” value with GABA-AT [7] is listed as “partially irreversible inhibitors”.
